Relative viability data for two cell lines are collected here from the supplement of paper PMC10307832.

Holding throughout (experiment): relative viability (nuclei count vs DMSO), 5 days (fraction); higher = more cells survive
Compound in the test “Nelarabine + Dasatinib”: COc1nc(N)nc2c1ncn2[C@@H]1O[C@H](CO)[C@@H](O)[C@@H]1O [Nelarabine] + Cc1nc(Nc2ncc(C(=O)Nc3c(C)cccc3Cl)s2)cc(N2CCN(CCO)CC2)n1 [Dasatinib] (partner 0.075 µM)
The gist of the method:
(§1)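 For relative viability, nuclei counts in treated wells were divided by those in vehicle wells. Lung cancer cell lines had been pin-tool dosed in 1536-well plates the day after seeding and cultured for 5 days, then fixed and stained in one step (final 0.05% Triton X-100, 1% formaldehyde, 1 ug/ml Hoechst) and imaged at 4×. Doses were one drug alone or a fixed anchor-drug dose plus five library-drug doses (not always all listed) in √10 steps, and values are duplicate-plate medians.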

Compound in the test “Nelarabine + Vorinostat”: COc1nc(N)nc2c1ncn2[C@@H]1O[C@H](CO)[C@@H](O)[C@@H]1O [Nelarabine] + O=C(CCCCCCC(=O)Nc1ccccc1)NO [Vorinostat] (partner 1 µM)
The gist of the method:
as §1

Compound in the test “Nelarabine + Decitabine”: COc1nc(N)nc2c1ncn2[C@@H]1O[C@H](CO)[C@@H](O)[C@@H]1O [Nelarabine] + Nc1ncn([C@H]2C[C@H](O)[C@@H](CO)O2)c(=O)n1 [Decitabine] (partner 2 µM)
The gist of the method: as §1

Compound in the test “Adavosertib + Vorinostat”: C=CCn1c(=O)c2cnc(Nc3ccc(N4CCN(C)CC4)cc3)nc2n1-c1cccc(C(C)(C)O)n1 [Adavosertib] + O=C(CCCCCCC(=O)Nc1ccccc1)NO [Vorinostat] (partner 1 µM)
The method, boiled down:
as §1

Take ABC-1: the relative viability with Nelarabine + Dasatinib (first compound 0.01 µM) is 0.705; with Nelarabine + Dasatinib (first compound 0.03162 µM) it was 0.462; with Nelarabine + Dasatinib (first compound 0.1 µM) it was 0.507; in the test with Nelarabine + Dasatinib (first compound 0.3162 µM), 0.548; with Nelarabine + Dasatinib (first compound 1 µM), 0.545; with Nelarabine + Vorinostat (first compound 0.01 µM) it was 1.24. Besides, the relative viability with Nelarabine + Vorinostat (first compound 0.03162 µM) came to 1.51; with Nelarabine + Vorinostat (first compound 0.1 µM), 1.22; in the test with Nelarabine + Vorinostat (first compound 0.3162 µM), 1.07; with Nelarabine + Vorinostat (first compound 1 µM), 0.929; with Nelarabine + Decitabine (first compound 0.01 µM), 1.25; in the test with Nelarabine + Decitabine (first compound 0.03162 µM) it was 1.21. In addition, the relative viability with Nelarabine + Decitabine (first compound 0.1 µM) worked out at 1.09; with Nelarabine + Decitabine (first compound 0.3162 µM) it was 1.05; in the test with Nelarabine + Decitabine (first compound 1 µM), 0.972; with Adavosertib + Vorinostat (first compound 0.01 µM), 1.17; with Adavosertib + Vorinostat (first compound 0.03162 µM) it was 1.26; with Adavosertib + Vorinostat (first compound 0.1 µM) it was 1.1. Further, the relative viability with Adavosertib + Vorinostat (first compound 0.3162 µM) came out at 1.44.

For ChaGo-K-1, the relative viability with Nelarabine + Dasatinib (first compound 0.01 µM) worked out at 0.624; with Nelarabine + Dasatinib (first compound 0.03162 µM), 0.515; in the test with Nelarabine + Dasatinib (first compound 0.1 µM), 0.533; with Nelarabine + Dasatinib (first compound 0.3162 µM), 0.707; with Nelarabine + Dasatinib (first compound 1 µM), 0.568; with Nelarabine + Vorinostat (first compound 0.01 µM), 0.972. Besides, the relative viability with Nelarabine + Vorinostat (first compound 0.03162 µM) worked out at 0.645; in the test with Nelarabine + Vorinostat (first compound 0.1 µM), 0.723; with Nelarabine + Vorinostat (first compound 0.3162 µM) it was 0.741; in the test with Nelarabine + Vorinostat (first compound 1 µM), 0.771; in the test with Nelarabine + Decitabine (first compound 0.01 µM), 0.559; with Nelarabine + Decitabine (first compound 0.03162 µM), 0.532. Also, the relative viability turned out to be 0.52 in the test with Nelarabine + Decitabine (first compound 0.1 µM); 0.539 with Nelarabine + Decitabine (first compound 0.3162 µM); 0.539 in the test with Nelarabine + Decitabine (first compound 1 µM); 0.747 with Adavosertib + Vorinostat (first compound 0.01 µM); 0.74 in the test with Adavosertib + Vorinostat (first compound 0.03162 µM); 0.779 with Adavosertib + Vorinostat (first compound 0.1 µM). In the test with Adavosertib + Vorinostat (first compound 0.3162 µM), the relative viability turned out to be 0.741.
